The results in this text go back to article PMC8514817, “De Novo Design of Antimicrobial Peptides With a Special Charge Pattern and Their Application in Combating Plant Pathogens” (Frontiers in Plant Science, 2021).

Where a SMILES comes first, the peptide text is derived from it. The star is where a group is joined. Myristoyl = CCCCCCCCCCCCCC(=O)*

Test [1] relates to Pcc. The class given is cell-based, Pectobacterium carotovorum subsp. carotovorum.
Test [2] deals with Xcc Xcc17. As to conditions: Table 4, rich medium, up to 32 μg/ml; for MIC: 48 h, no visible growth; for MBC: spotted on rich agar 48 h, no colony.
In test [3] the test system is Atu C58C1. As to conditions: Table 4, rich medium, up to 32 μg/ml; for MIC: 48 h, no visible growth; for MBC: spotted on rich agar 48 h, no colony.
Test [4] relates to Pcc. To be noted: 48 h.
Test [5] concerns Ech. As to conditions: 48 h.

With `CCCCCCCCCCCCCC(=O)N[C@@H](Cc1c[nH]c2ccccc12)C(=O)N[C@@H](CCCCN)C(=O)N[C@@H](CCCCN)C(=O)N[C@@H](CC(C)C)C(=O)N[C@@H](CCCCN)C(=O)N[C@@H](CCCCN)C(=O)N[C@@H](CC(C)C)C(=O)N[C@@H](CC(C)C)C(=O)N[C@@H](CCCCN)C(=O)N[C@@H](CCCCN)C(=O)N[C@@H](CC(C)C)C(=O)N[C@@H](CCCCN)C(=O)N[C@@H](CCCCN)C(=O)N[C@@H](CC(C)C)C(N)=O` [pepD2M] (Myristoyl-WKKLKKLLKKLKKL-NH2), in test [1], the “membranolytic effect (SYTOX Green staining)” value (“membranolytic effect” below) is on record as “significant membranolytic effect”.
In the case of Ac-WKKLKKLLKKLKKL-NH2 [pepD2], the “membranolytic effect” value in test [1] is recorded as “significant membranolytic effect”. The MIC (as a rule, the smallest concentration in the dilution series that meets the test's criterion for growth inhibition) in test [2] is 1 µg/mL; in test [3] it was 2 µg/mL. The MBC (usually the lowest tested concentration that kills the bacteria rather than only halting them) in test [2] was determined as 1 µg/mL; in test [3] it was 2 µg/mL; in test [4], 16 µg/mL.
Take Ac-WKKIKKIIKKIKKI-NH2 [pepI2]: the results for the MBC in test [4] and in test [5] were 2 µg/mL and 16 µg/mL, respectively. Moreover, the MIC in test [4] worked out at 2 µg/mL; in test [5] it was 16 µg/mL.
For Ac-WKKLKKLLKKL-NH2 [pepD3], in test [1], the “membranolytic effect” value is “significant membranolytic effect”. Also, the MIC in test [2] and in test [3] was 2 µg/mL in each case. Moreover, the minimum bactericidal concentration (MBC) amounted to 2 µg/mL in test [2], 2 µg/mL in test [3] and 16 µg/mL in test [4].
